Assay results from PubChem BioAssay AID1918936 (Molecular Pharmacology Branch, DTP, NCI, 2023).

Tested on: 349418-098-R-PDC complex spheroid viability
Assay: Anticancer human tumor 349418-098-R-PDC patient-derived lung adenocarcinoma cell line growth inhibition
Details: for IC50: curve of first compound; for viability, T/C: stronger effect = lower value
Procedure, shortened: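 Complex spheroids of tumor cells with HUVEC and human MSCs, exposed to iadademstat combined with other agents. Each agent tested in half-log steps from near clinical Cmax (else 10 microM top), DMSO ≤0.25%.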

[1] = second compound 0.1 µM, first compound 0.00949 µM
[2] = second compound 0.1 µM, first compound 0.03 µM
[3] = second compound 0.1 µM, first compound 0.0949 µM
[4] = second compound 0.1 µM, first compound 0.3 µM
[5] = second compound 0.316 µM, first compound 0.00949 µM
[6] = second compound 0.316 µM, first compound 0.03 µM
[7] = second compound 0.316 µM, first compound 0.0949 µM
[8] = second compound 0.316 µM, first compound 0.3 µM
[9] = second compound 1 µM, first compound 0.00949 µM
[10] = second compound 1 µM, first compound 0.03 µM
[11] = second compound 1 µM, first compound 0.0949 µM
[12] = second compound 1 µM, first compound 0.3 µM
[13] = second compound 3.16 µM, first compound 0.00949 µM
[14] = second compound 3.16 µM, first compound 0.03 µM
[15] = second compound 3.16 µM, first compound 0.0949 µM
[16] = second compound 3.16 µM, first compound 0.3 µM
[17] = second compound 10 µM, first compound 0.00949 µM
[18] = second compound 10 µM, first compound 0.03 µM
[19] = second compound 10 µM, first compound 0.0949 µM
[20] = second compound 10 µM, first compound 0.3 µM
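Note: spheroids exposed to agents for seven days before readout.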
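Throughout, for viability, T/C: 100% = DMSO vehicle control wells.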

SMILES | IC50 (second compound 0.1 µM) [nM] | IC50 (second compound 0.316 µM) [nM] | IC50 (second compound 1 µM) [nM] | IC50 (second compound 3.16 µM) [nM] | IC50 (second compound 10 µM) [nM] | viability, T/C [1] [%] | viability, T/C [2] [%] | viability, T/C [3] [%] | viability, T/C [4] [%] | viability, T/C [5] [%] | viability, T/C [6] [%] | viability, T/C [7] [%] | viability, T/C [8] [%] | viability, T/C [9] [%] | viability, T/C [10] [%] | viability, T/C [11] [%] | viability, T/C [12] [%] | viability, T/C [13] [%] | viability, T/C [14] [%] | viability, T/C [15] [%] | also measured
Nc1ccn(C2OC(CO)C(O)C2(F)F)c(=O)n1 (stereo not given) + NC1CC1c1ccc(-c2cccc(O)c2)cc1 | < 0.949 | < 0.949 | < 0.949 | < 0.949 | < 0.949 | 4.34 | 4.35 | 3.93 | 4.06 | 3.96 | 3.75 | 3.4 | 3.31 | 4.17 | 3.99 | 3.7 | 3.81 | 4.67 | 4.52 | 3.81 | viability, T/C (second compound 0.1 µM, first compound 0.000949 µM): 13.3%; viability, T/C (second compound 0.1 µM, first compound 0.003 µM): 4.68%; viability, T/C (second compound 0.316 µM, first compound 0.000949 µM): 14.1%; viability, T/C (second compound 0.316 µM, first compound 0.003 µM): 3.77%; viability, T/C (second compound 1 µM, first compound 0.000949 µM): 15.9%; viability, T/C (second compound 1 µM, first compound 0.003 µM): 4.07%; viability, T/C (second compound 3.16 µM, first compound 0.000949 µM): 18.6%; viability, T/C (second compound 3.16 µM, first compound 0.003 µM): 4.9%; viability, T/C [16]: 3.95%; viability, T/C (second compound 10 µM, first compound 0.000949 µM): 17.2%; viability, T/C (second compound 10 µM, first compound 0.003 µM): 4.98%; viability, T/C [17]: 5.12%; viability, T/C [18]: 4.52%; viability, T/C [19]: 4.65%; viability, T/C [20]: 4.28%
O=C(C=Cc1cccc(S(=O)(=O)Nc2ccccc2)c1)NO + NC1CCC(NC2CC2c2ccccc2)CC1 | 88.1 | 94.5 | 121 | 112 | 83.7 | 100 | 80.5 | 48.6 | 18.1 | 105 | 80.4 | 53.1 | 18.7 | 97.1 | 85.2 | 58.5 | 20.8 | 102 | 88.3 | 56.5 | viability, T/C (second compound 0.1 µM, first compound 0.949 µM): 4.19%; viability, T/C (second compound 0.1 µM, first compound 3 µM): 1.29%; viability, T/C (second compound 0.316 µM, first compound 0.949 µM): 3.88%; viability, T/C (second compound 0.316 µM, first compound 3 µM): 1.5%; viability, T/C (second compound 1 µM, first compound 0.949 µM): 3.93%; viability, T/C (second compound 1 µM, first compound 3 µM): 1.07%; viability, T/C [16]: 17%; viability, T/C (second compound 3.16 µM, first compound 0.949 µM): 3.94%; viability, T/C (second compound 3.16 µM, first compound 3 µM): 0.93%; viability, T/C [17]: 96.4%; viability, T/C [18]: 87.3%; viability, T/C [19]: 44.3%; viability, T/C [20]: 13.2%; viability, T/C (second compound 10 µM, first compound 0.949 µM): 3.61%; viability, T/C (second compound 10 µM, first compound 3 µM): 0.5%
